Experimental data: publication PMC7563019 (Acta Pharmaceutica Sinica. B, 2020)
Blank lines part the entries; values can stand above or below the compound they belong to.

Target: LSD1 (Homo sapiens, UniProt O60341)
Experiment: LSD1 enzymatic assay
Format: biochemical
Conditions: for inhibition at 1 µM: read-out: Inhibition rate (%) at 1 μmol/L against LSD1

SMILES: C#CCSc1nc(Nc2ccc(C)cc2)c(C#N)c(-c2ccccc2)n1 [Compound 7f]
IC50: > 64000 nM

SMILES: N#Cc1c(Nc2ccc(Cl)cc2)nc(SCc2cn(Cc3ccccc3Cl)nn2)nc1-c1ccccc1 [Compound 10b]
IC50: 628 ± 27 nM

SMILES: N#Cc1c(Nc2cccc(Cl)c2)nc(SCc2cn(Cc3ccccc3Cl)nn2)nc1-c1ccccc1 [Compound 10c]
IC50: 6310 ± 719 nM

SMILES: Cc1ccc(Nc2nc(SCc3cn(CC(=O)NC(=O)Nc4ccccn4)nn3)nc(-c3ccc(Cl)cc3)c2C#N)cc1 [Compound 14c]
IC50: 531 ± 2 nM | fold stronger LSD1 inhibitory activity than compound 14a: about 3.5 fold | inhibition at 1 µM: 91.4%

Further lines, results first:

IC50: 3820 ± 582 nM | inhibition at 1 µM: 46.3%
SMILES: Cc1ccc(Nc2nc(SCc3cn(CC(=O)NC(=O)Nc4ccccn4)nn3)nc(-c3ccc(Br)cc3)c2C#N)cc1 [Compound 14d]

IC50: 232 ± 2 nM
SMILES: Cc1ccc(-c2nc(SCc3cn(CC(=O)NC(=O)Nc4ccccn4)nn3)nc(Nc3cccc(Cl)c3)c2C#N)cc1 [Compound 14p]

IC50: > 125000 nM
SMILES: Cc1ccc(Nc2nc(SCC(=O)NC(=O)Nc3ccccn3)nc(-c3ccc(C(C)C)cc3)c2C#N)cc1 [Compound 16b]
